From article PMC7470151, “Synthesis and evaluation of 2,4,5-trisubstitutedthiazoles as carbonic anhydrase-III inhibitors” (Journal of Enzyme Inhibition and Medicinal Chemistry, 2020)

Key:
[1] = molecular target: T1, Bovine carbonic anhydrase, isozyme III (Bos taurus, UniProt Q3SZX4); test: Carbonic anhydrase-III inhibition assay by size exclusion Hummel–Dreyer method (HDM) chromatography; assay type: binding; details: HDM size exclusion HPLC; 0.24 mM analyte in mobile phase; 10% acetonitrile, phosphate buffer pH 6.5; 37 °C; CA-III injected at three concentrations
T1 construct: purchased Biovar Ltd, Armenia
T1 sequence (Q3SZX4 1-260): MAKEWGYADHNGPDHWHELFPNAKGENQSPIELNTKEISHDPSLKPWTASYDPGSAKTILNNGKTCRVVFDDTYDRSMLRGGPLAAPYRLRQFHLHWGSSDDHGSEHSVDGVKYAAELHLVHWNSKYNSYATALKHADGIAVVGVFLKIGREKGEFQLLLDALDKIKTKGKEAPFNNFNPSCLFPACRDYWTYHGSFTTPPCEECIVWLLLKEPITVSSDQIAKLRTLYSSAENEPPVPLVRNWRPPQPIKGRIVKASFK
Experimental: HPLC screening was conducted on the LC-2010A HT HPLC system, coupled with column temperature controller, degasser, auto sampler, and isocratic elution system, LC-solution software (to calculate peak area), Shimadzu Corporation, Kyoto, Japan. Back pressure was maintained around 6 MPA. A Phenomenex BioSep-SEC s2000, 300 × 7.8 mm column was used for size exclusion chromatography.
Bovine carbonic anhydrase, isozyme III (Biovar Ltd, Armenia) was stored at 0 °C in refrigerator until use. Enzyme was left for few minutes at room temperature before analysis. HPLC-grade methanol and acetonitrile (Fisher Scientific, Loughborough, UK) were used without further purification. NaH2PO4.H2O (Gainland, Deeside, UK), HCl (Carlo Erba, Italy), NaOH (Lonver, UK), and deionised water were used for the preparation of mobile phase. All the required chemicals for the synthesis of target compounds (12–16b) were procured either from Fisher Scientific, Loughborough, UK or Sigma-Aldrich, St. Louis, MO.
Each target compounds (12–16b) was dissolved in a mixture of acetonitrile: phosphate buffer, pH 6.5 (1:9 v/v) to obtain a final concentration of 0.24 mM. Subsequently, filtration and degassing by sonication were conducted for the mobile phase. Three different enzyme (CA-III) concentrations of […] were prepared from the stock solution (containing 0.865 mg in 10 mL of distilled water) by subsequent dilution method and injected separately in each run in the chromatographic system. All samples were used in duplicate. Vanillic acid was used as a positive control, and toluene was used as a negative control.
The mobile phase used for analysis was chosen according to the optimised conditions obtained, where 10% of organic modifier, 30 mM phosphate buffer (pH = 6.5) and 37 °C temperature was used. Column was pre-equilibrated with the mobile phase for 50 min. The flow rate of mobile phase was maintained at 1 mL/min during the run time. A wavelength of 230 nm (λmax) was selected for the analysis of all the tested compounds.
CA-III inhibitory activities of all the 17 target compounds (12–16b) as shown in Table 1 were carried out by using size exclusion HDM chromatography. The HDM chromatography was preferred over colorimetric assay of CA inhibitors, due to the susceptibility of the colorimetric methods to the intrinsic acidic or alkaline properties of analytes (inhibitors), including the lower catalytic activity of CA-III in CO2 hydration. Moreover, in HDM chromatographic method, the dilution effect of the mobile phase not only provides comparatively larger space for interaction between the macromolecule (CA-III) and analytes, but also lowers the probability of self-aggregation of macromolecules[35–37]^,[41]. The HDM was further optimised prior to use, where mobile phase was buffered to maintain the pH = 6.5 to mimic the physiological condition and to minimise the intrinsic properties of analytes. Moreover, acetonitrile (10%) was used to facilitate the elution of analytes (inhibitors) from the hydrophobic column as well as to prevent the adhesion of macromolecule to the stationary phase of the column. A constant optimised temperature of 37 °C was maintained throughout the chromatographic run, as the increase in temperature could not only influence the protein-ligand interaction but also affect the longevity of the column.
The chromatographic analysis by HDM is basically based on the measurement of the intensity of the formation of vacancy (negative) peak due to the subtraction of CA-III bound portion of analytes from the mobile phase. This method is also independent of the enzyme catalytic activity, thereby considered as more sensitive method for the estimation of inhibitory activities of analytes as compared to the colorimetric assay[35–37]^,[41]. Thus, weak inhibitors created weak vacancy peaks independent of the enzyme concentrations. […]

Row | Structure (SMILES) | melting point | Ki [1]
1 | COc1cc(C(=O)O)ccc1O [Vanillic acid, reference compound] | – | 6.8 µM
2 | COC(=O)c1nc(N)sc1-c1ccccc1 [Compound 12] | – | > 500 µM
3 | COC(=O)c1nc(N)sc1-c1ccc(C)cc1 [Compound 13, Methyl-2-amino-5-(p-tolyl)thiazole-4-carboxylate] | 201 °C | > 500 µM
4 | COC(=O)c1nc(N)sc1-c1ccc(Cl)c([N+](=O)[O-])c1 [Compound 15] | – | > 500 µM
5 | COC(=O)c1nc(N)sc1Cc1ccccc1 [Compound 16] | – | > 500 µM
6 | COC(=O)c1nc(N)sc1-c1ccc(S(C)(=O)=O)cc1 [Compound 14, Methyl-2-amino-5-(4-(methylsulfonyl)phenyl)thiazole-4-carboxylate] | 260 °C | > 500 µM
7 | COC(=O)c1nc(NC(=O)c2ccc([N+](=O)[O-])cc2)sc1-c1ccccc1 [Compound 12b, Methyl-2-(4-nitrobenzamido)-5-substituted-thiazole-4-carboxylate] | – | > 500 µM
8 | Nc1nc(C(=O)O)c(-c2ccccc2)s1 [Compound 12a, 2-amino-5-phenylthiazole-4-carboxylic acid] | – | 0.5 µM

Further lines, results first:

Row | melting point | Ki [1] | Structure (SMILES)
9 | 174 °C | 186 µM | COc1ccc(C(=O)Nc2nc(C(=O)O)c(-c3ccc(S(C)(=O)=O)cc3)s2)cc1 [Compound 14c, 2-(4-Methoxybenzamido)-5-(4-(methylsulfonyl)phenyl)thiazole-4-carboxylic acid]
10 | 147 °C | > 500 µM | COC(=O)c1nc(NC(=O)Nc2ccccc2)sc1-c1ccc(C)cc1 [Compound 13b, Methyl-2-(3-phenylureido)-5-(p-tolyl)thiazole-4-carboxylate]
11 | – | > 500 µM | Nc1nc(C(=O)O)c(Cc2ccccc2)s1 [Compound 16a]
12 | 238 °C | 86.6 µM | CS(=O)(=O)c1ccc(-c2sc(N)nc2C(=O)O)cc1 [Compound 14a, 2-Amino-5-(4-(methylsulfonyl)phenyl)thiazole-4-carboxylic acid]
13 | 143 °C | > 500 µM | COC(=O)c1nc(NC(=O)Nc2ccccc2)sc1-c1ccc(S(C)(=O)=O)cc1 [Compound 14d, Methyl 5-(4-(methylsulfonyl)phenyl)-2-(3-phenylureido)thiazole-4-carboxylate]
14 | 226 °C | > 500 µM | COC(=O)c1nc(NC(=O)Nc2ccccc2)sc1Cc1ccccc1 [Compound 16b, Methyl-5-benzyl-2-(3-phenylureido)thiazole-4-carboxylate]
15 | 236 °C | 18.9 µM | Cc1ccc(-c2sc(N)nc2C(=O)O)cc1 [Compound 13a, 2-Amino-5-(p-tolyl)thiazole-4-carboxylic acid]
16 | 163 °C | 81.2 µM | Nc1nc(C(=O)O)c(-c2ccc(Cl)c([N+](=O)[O-])c2)s1 [Compound 15a, 2-Amino-5-(4-chloro-3-nitrophenyl)thiazole-4-carboxylic acid]
17 | 239 °C | > 500 µM | COC(=O)c1nc(NC(=O)c2ccc(OC)cc2)sc1-c1ccc(S(C)(=O)=O)cc1 [Compound 14b, Methyl-2-(4-methoxybenzamido)-5-(4-(methylsulfonyl)phenyl)thiazole-4-carboxylate]
18 | 226 °C | 174 µM | Cc1ccc(-c2sc(NC(=O)Nc3ccccc3)nc2C(=O)O)cc1 [Compound 13c, 2-(3-Phenylureido)-5-(p-tolyl)thiazole-4-carboxylic acid]
